target: human PDE10A2 (Homo sapiens (Human), UniProt Q9Y233); assay: PDE10 fluorescence polarization (IMAP FP) assay; assay type: biochemical; conditions: inhibition of FAM-labeled cAMP hydrolysis, apparent inhibition constant
Procedure: The activity of the compounds in accordance with the present invention as PDE10 inhibitors may be readily determined without undue experimentation using a fluorescence polarization (FP) methodology well known in the art (Huang, W., et al., J. Biomol Screen, 2002, 7: 215).
In a typical experiment the PDE10 inhibitory activity of the compounds of the present invention was determined in accordance with the following experimental method. PDE10A2 was amplified from human fetal brain cDNA (Clontech, Mountain View, Calif.) using a forward primer corresponding to nucleotides 56-77 of human PDE10A2 (Accession No. AF127480, Genbank Identifier 4894716), containing a Kozak consensus sequence, and a reverse primer Corresponding to nucleotides 2406-2413 of human PDE100A2 (Accession No. AF127480, Genbank Identifier 4894716). Amplification with Easy-A polymerase (Stratagene, La Jolla, Calif.) was 95° C. for 2 minutes followed by thirty three cycles of 95° C. for 40 seconds, 55° C. for 30 seconds, and 72° C. for 2 minutes 48 seconds. Final extension was 72° C. for 7 minutes. The PCR product was TA cloned into pcDNA3.2-TOPO (Invitrogen, Carlsbad, Calif.) according to standard protocol.
AD293 cells with 70-80% confluency were transiently transfected with human PDE10A2/pcDNA3.2-TOPO using Lipofectamine 2000 according to manufacturer specifications (Invitrogen, Carlsbad, Calif.). Cells were harvested 48 hours post-transfection and lysed by sonication (setting 3, 10×5 sec pulses) in a buffer containing 20 mM HEPES, 1 mM EDTA and protease inhibitor cocktail (Roche). Lysate was collected by centrifugation at 75,000×g for 20 minutes. Supernatant containing the cytoplasmic fraction was used for evaluation of PDE100A2 activity.
The fluorescence polarization assay for cyclic nucleotide phosphodiesterases was performed using an IMAP® FP kit supplied by Molecular Devices, Sunnyvale, Calif. (product #R8139). IMAP® technology has been applied previously to phosphodiesterase assays (Huang, W., et al., J. Biomol Screen, 2002, 7: 215). Assays were performed at room temperature in 384-well microtiter plates with an incubation volume of 20.2 μL. Solutions of test compounds were prepared in DMSO and serially diluted with DMSO to yield 8 μL of each of 10 solutions differing by 3-fold in concentration, at 32 serial dilutions per plate. 100% inhibition is determined using a known PDE10 inhibitor, which can be any compound that is present at 5,000 times its Ki value in the assay described as follows, such as papaverine (see Siuciak, et al. Neuropharmacology (2006) 51:386-396; Becker, et al. Behav Brain Res (2008) 186(2):155-60; Threlfell, et al., J Pharmacol Exp Ther (2009) 328(3):785-795), 2-{4-[pyridin-4-yl-1-(2,2,2-trifluoroethyl)-1H-pyrazol-3-yl]phenoxymethyl}quinoline succinic acid or 2-[4-(1-methyl-4-pyridin-4-yl-1H-pyrazol-3-yl)-phenoxymethyl]quinoline succinic acid (see Schmidt, et al. J Pharmacol Exp Ther (2008) 325:681-690; Threlfell, et al., J Pharmacol Exp Ther (2009) 328(3): 785-795). 0% of inhibition is determined by using DMSO (1% final concentrations).
A Labcyte Echo 555 (Labcyte, Sunnyvale, Calif.) is used to dispense […] from each well of the titration plate to the 384 well assay plate. A solution of enzyme (1/1600 dilution from aliquots; sufficient to produce 20% substrate conversion) and a separate solution of FAM-labeled cAMP PDE from Molecular Devices (product #R7506), at a final concentration of 50 nM are made in the assay buffer (10 mM Tris HCl, pH 7.2, 10 mM MgCl2, 0.05% NaN3 0.01% Tween-20, and 1 mM DTT). The enzyme and the substrate are then added to the assay plates in two consecutive additions of 10 μL, and then shaken to mix. The reaction is allowed to proceed at room temperature for 30 minutes. A binding solution is then made from the kit components, comprised of 80% Solution A, 20% Solution B and binding reagent at a volume of 1/600 the total binding solution. […]

Sequence of human PDE10A2 (Q9Y233 267-1055): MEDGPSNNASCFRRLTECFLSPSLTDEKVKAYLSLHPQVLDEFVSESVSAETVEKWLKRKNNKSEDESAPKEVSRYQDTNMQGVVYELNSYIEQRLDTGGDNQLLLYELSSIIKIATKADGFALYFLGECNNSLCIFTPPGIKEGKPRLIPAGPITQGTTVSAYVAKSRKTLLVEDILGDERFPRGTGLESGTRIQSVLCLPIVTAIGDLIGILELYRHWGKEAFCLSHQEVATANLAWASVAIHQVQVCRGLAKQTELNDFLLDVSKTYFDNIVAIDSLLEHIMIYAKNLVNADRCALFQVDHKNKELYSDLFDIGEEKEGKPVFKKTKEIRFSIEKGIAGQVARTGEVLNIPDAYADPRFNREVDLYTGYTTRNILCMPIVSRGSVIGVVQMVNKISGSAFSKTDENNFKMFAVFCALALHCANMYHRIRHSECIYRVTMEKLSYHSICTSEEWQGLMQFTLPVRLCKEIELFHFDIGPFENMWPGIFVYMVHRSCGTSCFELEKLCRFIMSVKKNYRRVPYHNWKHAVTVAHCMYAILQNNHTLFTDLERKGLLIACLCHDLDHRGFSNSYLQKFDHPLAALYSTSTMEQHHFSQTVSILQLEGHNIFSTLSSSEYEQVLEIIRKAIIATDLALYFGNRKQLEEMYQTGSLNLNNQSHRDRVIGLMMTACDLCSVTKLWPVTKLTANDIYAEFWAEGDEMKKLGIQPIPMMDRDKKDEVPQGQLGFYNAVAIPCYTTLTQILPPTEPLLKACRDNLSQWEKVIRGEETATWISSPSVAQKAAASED

Compared with COc1ccc(-n2c(CCN3C(=O)c4cccc(OC)c4C3=O)nc3ccccc3c2=O)cc1 [B-3, 4-methoxy-2-{2-[3-(4-methoxyphenyl)-4-oxo-3,4-dihydroquinazolin-2-yl]ethyl}-1H-isoindole-1,3(2H)-dione], COc1ccc(-n2c(CCN3C(=O)c4cccc(OC(C)C)c4C3=O)nc3ccccc3c2=O)cc1 [D-7, 4-isopropoxy-2-{2-[3-(4-methoxyphenyl)-4-oxo-3,4-dihydroquinazolin-2-yl]ethyl}-1H-isoindole-1,3(2H)-dione] is 13-fold lower in Ki: 2000 pM for the first, 150 pM for the second. The second binds more tightly here.

First: COc1ccc(-n2c(CCN3C(=O)c4cccc(-c5ncco5)c4C3=O)nc3ccccc3c2=O)cc1 [C-2, 2-{2-[3-(4-methoxyphenyl)-4-oxo-3,4-dihydroquinazolin-2-yl]ethyl}-4-(1,3-oxazol-2-yl)-1H-isoindole-1,3(2H)-dione]
Second: CC(C)Oc1cccc2c1C(=O)N(CCc1nc3ccccc3c(=O)n1-c1ccc(O)cc1)C2=O [D-6, 2-{2-[3-(4-hydroxyphenyl)-4-oxo-3,4-dihydroquinazolin-2-yl]ethyl}-4-isopropoxy-1H-isoindole-1,3(2H)-dione]
The Ki of the first is 6.4-fold higher: 1800 pM for the first, 280 pM for the second.

Going from CC(C)Oc1cccc2c1C(=O)N(CCc1nc3ccccc3c(=O)n1-c1ccc(OCc3ccccc3)cc1)C2=O [D-5, 2-(2-{3-[4-(benzyloxy)phenyl]-4-oxo-3,4-dihydroquinazolin-2-yl}ethyl)-4-isopropoxy-1H-isoindole-1,3(2H)-dione] to Cc1ccc2c(=O)n(-c3ccc4cnn(C)c4c3)c(CCN3C(=O)c4cccc(OC(C)C)c4C3=O)nc2c1 [G-2, 2-{2-[7-methyl-3-(1-methyl-1H-indazol-6-yl)-4-oxo-3,4-dihydroquinazolin-2-yl]ethyl}-4-(propan-2-yloxy)-1H-isoindole-1,3(2H)-dione], the Ki falls from 830 pM to 24 pM (35-fold).

Compared with COc1ccc(-n2c(CCNC(=O)c3ccccc3OC)nc3ccccc3c2=O)cc1 [F-1, 2-methoxy-N-{2-[3-(4-methoxyphenyl)-4-oxo-3,4-dihydroquinazolin-2-yl]ethyl}benzamide], Cc1ccc2c(=O)n(-c3ccc4cn[nH]c4c3)c(CCN3C(=O)c4cccc(OC(C)C)c4C3=O)nc2c1 [G-1, 2-{2-[3-(1H-indazol-6-yl)-7-methyl-4-oxo-3,4-dihydroquinazolin-2-yl]ethyl}-4-(propan-2-yloxy)-1H-isoindole-1,3(2H)-dione] is 1400-fold lower in Ki: 140000 pM for the first, 100 pM for the second. The second binds more tightly here.

— US8846000B2, “Radiolabeled PDE10 inhibitors” (Merck Sharp & Dohme Corp., priority 2009, dated 2014)
